Results reported in the NIST ThermoML archive (doi:10.1016/j.fluid.2014.04.002).
± gives the expanded uncertainty stated by the source.

Experiment: xn = mol fraction of the nth substance listed
Settings: 101 kPa, Liquid; for viscosity: Concentric cylinders viscometry; for mass density: Vibrating tube method

COCCOCCOCCOCCOC [2,5,8,11,14-pentaoxapentadecane] + CCOC(=O)C(C)O
Settings	mass density, 288.15 K [kg/m3]	mass density, 293.15 K [kg/m3]	mass density, 298.15 K [kg/m3]	mass density, 303.15 K [kg/m3]	viscosity, 288.15 K [mPa·s]	viscosity, 293.15 K [mPa·s]	viscosity, 298.15 K [mPa·s]	viscosity, 303.15 K [mPa·s]
x2 = 0	1016.7 ± 0.24	1012.06 ± 0.24	1007.42 ± 0.23	1002.79 ± 0.23	4.353 ± 0.075	3.795 ± 0.065	3.348 ± 0.058	2.983 ± 0.051
x2 = 0.0999	1018.51 ± 0.29	1013.83 ± 0.28	1009.15 ± 0.28	1004.48 ± 0.28	4.303 ± 0.075	3.749 ± 0.065	3.299 ± 0.057	2.933 ± 0.051
x2 = 0.1999	1020.55 ± 0.34	1015.83 ± 0.33	1011.11 ± 0.33	1006.39 ± 0.32	4.265 ± 0.075	3.713 ± 0.065	3.266 ± 0.057	2.9 ± 0.051
x2 = 0.2999	1022.59 ± 0.39	1017.82 ± 0.39	1013.05 ± 0.38	1008.28 ± 0.38	4.226 ± 0.075	3.673 ± 0.065	3.23 ± 0.057	2.864 ± 0.051
x2 = 0.3998	1024.79 ± 0.45	1019.98 ± 0.45	1015.17 ± 0.44	1010.34 ± 0.43	4.176 ± 0.075	3.623 ± 0.065	3.181 ± 0.057	2.815 ± 0.051
x2 = 0.4999	1027.14 ± 0.52	1022.26 ± 0.51	1017.37 ± 0.5	1012.47 ± 0.5	4.109 ± 0.074	3.557 ± 0.064	3.115 ± 0.056	2.752 ± 0.05
x2 = 0.6001	1029.57 ± 0.59	1024.61 ± 0.58	1019.64 ± 0.57	1014.66 ± 0.56	4.027 ± 0.074	3.478 ± 0.064	3.036 ± 0.056	2.681 ± 0.049
x2 = 0.6998	1032.25 ± 0.66	1027.18 ± 0.65	1022.11 ± 0.65	1017.03 ± 0.64	3.906 ± 0.072	3.364 ± 0.062	2.929 ± 0.055	2.58 ± 0.048
x2 = 0.8001	1034.95 ± 0.74	1029.8 ± 0.73	1024.63 ± 0.72	1019.45 ± 0.71	3.746 ± 0.07	3.219 ± 0.061	2.8 ± 0.053	2.463 ± 0.046
x2 = 0.9	1037.37 ± 0.83	1032.09 ± 0.82	1026.8 ± 0.81	1021.49 ± 0.8	3.53 ± 0.067	3.028 ± 0.058	2.633 ± 0.05	2.311 ± 0.044
